Results taken from patent US20250206738A1, “WRN INHIBITORS” (Nimbus Wadjet, Inc., priority 2023, published 2025).

Assays:
[1] = target: T1, human Werner helicase (WRN, Uniprot Q14191, amino acids 517-1235 with L1074F point mutation; WRN-BV08) (Homo sapiens, UniProt Q14191, L1074F); test: WRN (BV08) ADP-Glo assay; format: biochemical; settings: WRN-BV08 (aa 517-1235, L1074F); read-out: ADP-Glo_hWRN_IC50
T1 construct: Uniprot Q14191, amino acids 517-1235 with L1074F point mutation; 8xHis (C, cleaved yes); TEV cleavage site (ENLYFQG) (C, cleaved yes); made in house; host or cells: Sf9 insect cells (baculovirus, pFastBac)
Method in brief: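 ADP formed by untagged WRN helicase fragment (aa 517-1235, L1074F; 0.15 nM final) on 0.1 nM DNA duplex with […], 60 min at 25 °C after 15 min compound preincubation, pH 7.5 Bicine buffer. Luminescent ADP-Glo readout; IC50 from 4-parameter fit of % inhibition.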

[2] = system: p21 induction in HCT 116 cells; test: p21 induction in cells (In-Cell Western, p21/GAPDH ratio); format: cell-based; settings: Homo sapiens, HCT-116, 24 h, 24 h compound incubation, read-out: P21_EC50
Method in brief: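 p21 and GAPDH signals quantified by In-Cell Western after 24 h compound exposure of HCT 116 cells (11 concentrations, 2-fold steps, usual top 10 μM). Percent activation from p21/GAPDH ratio relative to DMSO (low) and internal WRN inhibitor (high) controls; curve fit gave EC50.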

T1 sequence (Q14191 with tags, fused parts or gaps L1074F): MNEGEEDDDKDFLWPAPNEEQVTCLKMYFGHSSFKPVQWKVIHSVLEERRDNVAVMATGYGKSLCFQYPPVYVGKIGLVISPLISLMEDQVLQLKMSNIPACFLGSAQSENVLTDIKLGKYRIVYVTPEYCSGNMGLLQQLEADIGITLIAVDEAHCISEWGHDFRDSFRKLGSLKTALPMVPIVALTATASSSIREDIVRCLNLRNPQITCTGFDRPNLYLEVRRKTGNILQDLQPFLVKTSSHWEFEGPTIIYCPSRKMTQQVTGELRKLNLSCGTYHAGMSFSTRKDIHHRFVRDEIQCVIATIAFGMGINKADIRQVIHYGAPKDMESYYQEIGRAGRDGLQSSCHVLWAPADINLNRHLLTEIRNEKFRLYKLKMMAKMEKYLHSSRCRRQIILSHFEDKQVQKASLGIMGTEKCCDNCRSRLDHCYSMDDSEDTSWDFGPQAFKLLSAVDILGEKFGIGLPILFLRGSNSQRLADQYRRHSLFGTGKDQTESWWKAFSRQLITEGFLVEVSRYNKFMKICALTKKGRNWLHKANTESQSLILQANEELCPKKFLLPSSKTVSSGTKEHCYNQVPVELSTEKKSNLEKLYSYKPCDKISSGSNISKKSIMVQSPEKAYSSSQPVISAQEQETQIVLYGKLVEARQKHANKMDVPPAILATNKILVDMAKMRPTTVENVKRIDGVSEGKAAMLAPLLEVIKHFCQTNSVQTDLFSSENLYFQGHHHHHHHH

SMILES | IC50 [1] | EC50 [2]
CCc1c(N2CCN(C(=O)c3cccc(N4CCN(C)CC4)c3)[C@H]3CC[C@@H]32)c(=O)c2nn(C3=CCOCC3)nc2n1CC(=O)NC12CC(C(C)C)(C1)C2 [I-201, 2-(2-(3,6-dihydro-2H-pyran-4-yl)-5-ethyl-6-((1S,6S)-5-(3-(4-methylpiperazin-1-yl)benzoyl)-2,5-diazabicyclo[4.2.0]octan-2-yl)-7-oxo-2,7-dihydro-4H-[1,2,3]triazolo[4,5-b]pyridin-4-yl)-N-(3-isopropylbicyclo[1.1.1]pentan-1-yl)acetamide] | ≤ 5 nM | 500 to 2000 nM
CCc1c(N2CCN(C(=O)c3c(O)ccc4ncoc34)CC2)c(=O)n2nc(-c3ccnc(OC)c3)nc2n1CC(=O)NC1CC2(CCC2)C1 [I-206, 2-(5-ethyl-6-(4-(6-hydroxybenzo[d]oxazole-7-carbonyl)piperazin-1-yl)-2-(2-methoxypyridin-4-yl)-7-oxo-[1,2,4]triazolo[1,5-a]pyrimidin-4(7H)-yl)-N-(spiro[3.3]heptan-2-yl)acetamide] | 5 to 50 nM | 500 to 2000 nM
CCc1c(N2CCN(C(=O)c3c(O)ccc4ncoc34)CC2)c(=O)n2ncnc2n1CC(=O)NC12CC(C3CCC3)(C1)C2 [I-243, N-(3-cyclobutylbicyclo[1.1.1]pentan-1-yl)-2-(5-ethyl-6-(4-(6-hydroxybenzo[d]oxazole-7-carbonyl)piperazin-1-yl)-7-oxo-[1,2,4]triazolo[1,5-a]pyrimidin-4(7H)-yl)acetamide] | 100 to 500 nM | > 5000 nM
CCc1c(N2CCN(C(=O)c3cc(C(C)(C)O)cnc3OC)[C@H]3CC[C@@H]32)c(=O)c2nn(C3=CCOCC3)nc2n1CC(=O)NC12CC(C3CC3)(C1)C2 [I-221, N-(3-cyclopropylbicyclo[1.1.1]pentan-1-yl)-2-(2-(3,6-dihydro-2H-pyran-4-yl)-5-ethyl-6-((1S,6S)-5-(5-(2-hydroxypropan-2-yl)-2-methoxynicotinoyl)-2,5-diazabicyclo[4.2.0]octan-2-yl)-7-oxo-2,7-dihydro-4H-[1,2,3]triazolo[4,5-b]pyridin-4-yl)acetamide] | 5 to 50 nM | 2000 to 5000 nM
CCc1c(N2CCN(C(=O)c3ncc4c(c3O)CCO4)CC2)c(=O)n2nc(C3=CCOCC3)nc2n1CC(=O)NC12CC(C(C)(F)F)(C1)C2 [I-7, N-(3-(1,1-difluoroethyl)bicyclo[1.1.1]pentan-1-yl)-2-(2-(3,6-dihydro-2H-pyran-4-yl)-5-ethyl-6-(4-(4-hydroxy-2,3-dihydrofuro[2,3-c]pyridine-5-carbonyl)piperazin-1-yl)-7-oxo-[1,2,4]triazolo[1,5-a]pyrimidin-4(7H)-yl)acetamide] | 5 to 50 nM | 2000 to 5000 nM
CCc1c(N2CCN(C(=O)c3c(O)ccc4ncoc34)CC2)c(=O)n2nc(-c3ccnc(OC)c3)nc2n1CCNC(=O)C12CC(C(F)(F)F)(C1)C2 [I-34, N-(2-(5-ethyl-6-(4-(6-hydroxybenzo[d]oxazole-7-carbonyl)piperazin-1-yl)-2-(2-methoxypyridin-4-yl)-7-oxo-[1,2,4]triazolo[1,5-a]pyrimidin-4(7H)-yl)ethyl)-3-(trifluoromethyl)bicyclo[1.1.1]pentyl-1-carboxamide] | > 500 nM | > 5000 nM
CCc1c(N2CCN(C(=O)c3c(O)ccc4nc(C)oc34)CC2)c(=O)n2nc(-c3ccnc(OC)c3)nc2n1CC(=O)NC12CC(CC)(C1)C2 [I-215, 2-(5-ethyl-6-(4-(6-hydroxy-2-methylbenzo[d]oxazole-7-carbonyl)piperazin-1-yl)-2-(2-methoxypyridin-4-yl)-7-oxo-[1,2,4]triazolo[1,5-a]pyrimidin-4(7H)-yl)-N-(3-ethylbicyclo[1.1.1]pentan-1-yl)acetamide] | 5 to 50 nM | ≤ 500 nM
CCc1c(C2=CCN(C(=O)c3ncnc(C)c3O)CC2C)c(=O)c2nn(-c3ccnc(OC)c3)nc2n1CC(=O)NC12CC(C(C)C)(C1)C2 (single isomer, unassigned) [I-97] | 5 to 50 nM | ≤ 500 nM
CCc1c(N2CCN(C(=O)c3c(O)ccc4ncoc34)CC2)c(=O)n2nc(-c3ccnc(OC)c3)nc2n1CC(=O)NC12CC(C(C)C)(C1)C2 [I-35, 2-(5-ethyl-6-(4-(6-hydroxybenzo[d]oxazole-7-carbonyl)piperazin-1-yl)-2-(2-methoxypyridin-4-yl)-7-oxo-[1,2,4]triazolo[1,5-a]pyrimidin-4(7H)-yl)-N-(3-isopropylbicyclo[1.1.1]pentan-1-yl)acetamide] | ≤ 5 nM | ≤ 500 nM

Now from value to compound:

IC50 [1] | EC50 [2] | SMILES
50 to 100 nM | > 5000 nM | CCc1c(N2CCN(C(=O)c3c(OC)ncc(C)c3O)CC2)c(=O)c2nc(N(C)C)cnc2n1CC(=O)NC12CC(C(F)(F)F)(C1)C2 [I-240, 2-(2-(dimethylamino)-6-ethyl-7-(4-(4-hydroxy-2-methoxy-5-methylnicotinoyl)piperazin-1-yl)-8-oxopyrido[2,3-b]pyrazin-5(8H)-yl)-N-(3-(trifluoromethyl)bicyclo[1.1.1]pentan-1-yl)acetamide]
100 to 500 nM | > 5000 nM | CCc1c(N2CCN(C(=O)c3ncnc(C)c3O)CC2)c(=O)c2nc(N(C)C)cnc2n1CC(=O)NC12CC(C(F)(F)F)(C1)C2 [I-1, 2-(2-(dimethylamino)-6-ethyl-7-(4-(5-hydroxy-6-methylpyrimidine-4-carbonyl)piperazin-1-yl)-8-oxopyrido[2,3-b]pyrazin-5(8H)-yl)-N-(3-(trifluoromethyl)bicyclo[1.1.1]pentan-1-yl)acetamide]
5 to 50 nM | 500 to 2000 nM | CCc1c(N2CCN(C(=O)c3ncnc(C)c3O)[C@H]3CC[C@@H]32)c(=O)c2nc(N(C)C)cnc2n1CC(=O)NC12CC(C3CCCC3)(C1)C2 [I-224, N-(3-cyclopentylbicyclo[1.1.1]pentan-1-yl)-2-(2-(dimethylamino)-6-ethyl-7-((1S,6S)-5-(5-hydroxy-6-methylpyrimidine-4-carbonyl)-2,5-diazabicyclo[4.2.0]octan-2-yl)-8-oxopyrido[2,3-b]pyrazin-5(8H)-yl)acetamide]
5 to 50 nM | > 5000 nM | CCc1c(N2CCN(C(=O)c3ncnc(C)c3O)CC2)c(=O)c2nc3cc(C)sc3nc2n1CC(=O)NC12CC(C(F)(F)F)(C1)C2 [I-3, 2-(7-ethyl-6-(4-(5-hydroxy-6-methylpyrimidine-4-carbonyl)piperazin-1-yl)-2-methyl-5-oxopyrido[2,3-b]thieno[3,2-e]pyrazin-8(5H)-yl)-N-(3-(trifluoromethyl)bicyclo[1.1.1]pentan-1-yl)acetamide]
5 to 50 nM | 2000 to 5000 nM | CCc1c(N2CCN(C(=O)c3ncnc(C)c3O)CC2)c(=O)n2nc(C3=CCOCC3)nc2n1CC(=O)NC12CC(C3CC3)(C1)C2 [I-32, N-(3-cyclopropylbicyclo[1.1.1]pentan-1-yl)-2-(2-(3,6-dihydro-2H-pyran-4-yl)-5-ethyl-6-(4-(5-hydroxy-6-methylpyrimidine-4-carbonyl)piperazin-1-yl)-7-oxo-[1,2,4]triazolo[1,5-a]pyrimidin-4(7H)-yl)acetamide]
5 to 50 nM | 500 to 2000 nM | CCc1c(N2CCN(C(=O)c3ncnc(C)c3O)[C@H]3CC[C@@H]32)c(=O)c2nc(C)c(C)nc2n1CC(=O)NC12CC(C3CC3)(C1)C2 [I-227, N-(3-cyclopropylbicyclo[1.1.1]pentan-1-yl)-2-(6-ethyl-7-((1S,6S)-5-(5-hydroxy-6-methylpyrimidine-4-carbonyl)-2,5-diazabicyclo[4.2.0]octan-2-yl)-2,3-dimethyl-8-oxopyrido[2,3-b]pyrazin-5(8H)-yl)acetamide]
